Source: US9801901B2, “Alginate oligomers for use in overcoming multidrug resistance in bacteria” (priority 2009, dated 2017)
Where two headings read alike, the source gives them in different places. Marks after values point to notes of the source that are not given here.

Legend:
V22 6056 Acinetobacter = assay: MIC assay, CAMHB with alginate oligomer, no visible growth; assay type: cell-based, Acinetobacter lwoffii; conditions: Table 5, V22 MDR Acin. lwoff
[1] = test system: Pseudomonas aeruginosa MDR R22 from China (V1); assay: as above; assay type: cell-based; conditions: for MIC: Pseudomonas aeruginosa, Table 1, V1 MDR R22 PA, read-out: MIC
From the text: The study described in Example 1 was repeated with the following strains of bacteria and antibiotics as detailed in Tables 4, 5 and 6.

[2] = test system: Pseudomonas aeruginosa MDR 301 from Poland (V2); assay: as above; assay type: cell-based; conditions: Pseudomonas aeruginosa, Table 1, V2 MDR 301 PA, read-out: MIC
[3] = test system: Pseudomonas aeruginosa (MDR 301, PSA, V2); assay: MIC-assay, Mueller-Hinton broth with G-block alginate, 384-well, OD600; conditions: Pseudomonas aeruginosa, Table 8, V2
[4] = test system: strains of E. coli displaying MDR phenotypes; assay: MIC-assay, Mueller-Hinton broth with G-block alginate, 384-well, OD600 (Table 11); assay type: cell-based; conditions: Escherichia coli, Escherichia coli (5702, Wales, V11) MDR, read-out: MIC
From the text: (§1) Minimum inhibitory concentration (MICs) of different antibiotics for strains of E. coli and Providencia stuartii displaying MDR phenotypes in the presence of varying concentrations of OligoCF-5/20 (0-10%). (MIC values are expressed in μg ml^−1).

MDR Providencia stuartii = assay: as above; assay type: cell-based; conditions: Providencia stuartii (IR57 India, V7) MDR
From the text: as §1

[5] = test system: PA01 Pseudomonas aeruginosa ATCC 15692; assay: MIC assay, two-fold antibiotic dilutions in CAMHB with alginate oligomer, no visible growth; assay type: cell-based; conditions: Pseudomonas aeruginosa, ATCC15692, Table 1, PA01, read-out: MIC
[6] = test system: Acinetobacter lwoffii (Egypt, V10); assay: MIC-assay, Mueller-Hinton broth with G-block alginate, 384-well, OD600
V11 5702 (Wales) E. coli = assay: MIC assay, CAMHB with alginate oligomer, no visible growth; assay type: cell-based; conditions: Table 5, V11 MDR E.coli
[7] = test system: Acinetobacter baumannii (Egypt, V9); assay: MIC-assay, Mueller-Hinton broth with G-block alginate, 384-well, OD600
[8] = test system: Burkholderia cepacia (1322, V23); assay: as above
[9] = test system: Acinetobacter lwoffii (6056, V22); assay: as above
[10] = test system: V12 5725 (Wales) Klebsiella pneumoniae; assay: MIC assay, CAMHB with alginate oligomer, no visible growth; assay type: cell-based; conditions: Table 5, V12 MDR Kleb pneu
[11] = test system: V9 (Egypt) Acinetobacter baumannii; assay: as above; assay type: cell-based; conditions: Table 5, V9 MDR Acin. baum
[12] = test system: Pseudomonas aeruginosa ATCC 39324, mucoid type strain (R79); assay: as above; assay type: cell-based; conditions: Pseudomonas aeruginosa, ATCC39324, Table 1, R79, read-out: MIC
[13] = test system: strains of Klebsiella pneumoniae displaying MDR phenotypes; assay: MIC-assay, Mueller-Hinton broth with G-block alginate, 384-well, OD600 (Table 10); assay type: cell-based
From the text: Minimum inhibitory concentration (MICs) of different antibiotics for strains of Klebsiella pneumoniae displaying MDR phenotypes in the presence of varying concentrations of OligoCF-5/20 (0-10%). (MIC values are expressed in μg ml^−1).

[14] = test system: Burkholderia cepacia (LMG18941, ATCC-BAA-246); assay: MIC-assay, Mueller-Hinton broth with G-block alginate, 384-well, OD600
[15] = Table 9, G-block (OligoCF-5/20) 0%
[16] = Table 9, G-block (OligoCF-5/20) 2%
[17] = Table 9, G-block (OligoCF-5/20) 6%
[18] = Table 9, G-block (OligoCF-5/20) 10%

CC(C)(O/N=C(\C(=O)N[C@@H]1C(=O)N2C(C(=O)[O-])=C(C[n+]3ccccc3)CS[C@H]12)c1csc(N)n1)C(=O)O [Ceftazidime]
64^† μg/ml: MIC (V11 5702 (Wales) E. coli; OligoCF-5/20 +2% G) | MIC (V11 5702 (Wales) E. coli; OligoCF-5/20 +10% G)
0.25 µg/mL: MIC ([3]; G-block (OligoCF-5/20) 6%) | MIC [6, 17] | MIC [6, 18]
32 µg/mL: MIC ([1]; OligoCF-5/20 +6% G) | MIC ([2]; OligoCF-5/20 0G)
> 16 µg/mL: MIC ([4]; G-block (OligoCF-5/20) 0%) | MIC ([4]; G-block (OligoCF-5/20) 2%) | MIC ([4]; G-block (OligoCF-5/20) 6%) | MIC ([4]; G-block (OligoCF-5/20) 10%) | MIC [7, 15] | MIC [7, 16] | MIC [7, 17] | MIC [7, 18] | MIC ([8]; Table 8, G-block (OligoCF-5/20) 0%) | MIC ([8]; Table 8, G-block (OligoCF-5/20) 2%) | MIC ([13]; Klebsiella pneumoniae (5712, Wales, V12) MDR, G-block (OligoCF-5/20) 0%, read-out: MIC) | MIC ([13]; Klebsiella pneumoniae (5712, Wales, V12) MDR, G-block (OligoCF-5/20) 6%, read-out: MIC) | MIC ([13]; Klebsiella pneumoniae (5712, Wales, V12) MDR, G-block (OligoCF-5/20) 10%, read-out: MIC) | MIC ([14]; ATCCBAA246|LMG18941, Table 8, G-block (OligoCF-5/20) 0%)
1 µg/mL: MIC [6, 16]
32^† μg/ml: MIC (V11 5702 (Wales) E. coli; OligoCF-5/20 +6% G)
2^† μg/ml: MIC (V22 6056 Acinetobacter; OligoCF-5/20 +10% G)
8 µg/mL: MIC ([1]; OligoCF-5/20 +10% G) | MIC ([2]; OligoCF-5/20 +6% G) | MIC [9, 15] | MIC ([13]; Klebsiella pneumoniae (5712, Wales, V12) MDR, G-block (OligoCF-5/20) 2%, read-out: MIC)
1020 µg/mL: MIC ([13]; Klebsiella pneumoniae (IR25, India, V6) MDR, G-block (OligoCF-5/20) 2%) | MIC ([13]; Klebsiella pneumoniae (IR25, India, V6) MDR, G-block (OligoCF-5/20) 10%)
2 µg/mL: MIC [6, 15] | MIC [9, 17] | MIC [9, 18]
16 µg/mL: MIC (V22 6056 Acinetobacter; Acinetobacter, OligoCF-5/20 0G, read-out: MIC) | MIC (V22 6056 Acinetobacter; OligoCF-5/20 +2% G) | MIC ([2]; OligoCF-5/20 +2% G) | MIC ([8]; Table 8, G-block (OligoCF-5/20) 6%) | MIC ([8]; Table 8, G-block (OligoCF-5/20) 10%) | MIC ([14]; ATCCBAA246|LMG18941, Table 8, G-block (OligoCF-5/20) 2%) | MIC ([14]; ATCCBAA246|LMG18941, Table 8, G-block (OligoCF-5/20) 6%) | MIC ([14]; ATCCBAA246|LMG18941, Table 8, G-block (OligoCF-5/20) 10%)
4^† μg/ml: MIC (V22 6056 Acinetobacter; OligoCF-5/20 +6% G)
reduced: change of MIC in combination with azithromycin by alginate oligomer ([1]; Table 3, MDR R22 PA strain)
128 µg/mL: MIC ([1]; OligoCF-5/20 0G) | MIC (V11 5702 (Wales) E. coli; Escherichia coli, OligoCF-5/20 0G, read-out: MIC)
64 µg/mL: MIC ([1]; OligoCF-5/20 +2% G) | MIC ([10]; Klebsiella pneumoniae, OligoCF-5/20 0G, read-out: MIC) | MIC ([10]; OligoCF-5/20 +2% G)
0.5 µg/mL: MIC ([3]; G-block (OligoCF-5/20) 0%)
< 1 µg/mL: MIC ([5]; OligoCF-5/20 0G) | MIC ([5]; OligoCF-5/20 +2% G) | MIC ([5]; OligoCF-5/20 +6% G) | MIC ([5]; OligoCF-5/20 +10% G) | MIC ([12]; OligoCF-5/20 0G) | MIC ([12]; OligoCF-5/20 +2% G) | MIC ([12]; OligoCF-5/20 +6% G) | MIC ([12]; OligoCF-5/20 +10% G)
16^† μg/ml: MIC ([10]; OligoCF-5/20 +6% G) | MIC ([10]; OligoCF-5/20 +10% G)
512^† μg/ml: MIC ([11]; OligoCF-5/20 +2% G) | MIC ([11]; OligoCF-5/20 +6% G)
4 µg/mL: MIC ([2]; OligoCF-5/20 +10% G) | MIC [9, 16]
> 1020 µg/mL: MIC (MDR Providencia stuartii; G-block (OligoCF-5/20) 0%) | MIC (MDR Providencia stuartii; G-block (OligoCF-5/20) 2%) | MIC (MDR Providencia stuartii; G-block (OligoCF-5/20) 6%) | MIC (MDR Providencia stuartii; G-block (OligoCF-5/20) 10%) | MIC ([13]; Klebsiella pneumoniae (IR25, India, V6) MDR, G-block (OligoCF-5/20) 0%, read-out: MIC) | MIC ([13]; Klebsiella pneumoniae (IR25, India, V6) MDR, G-block (OligoCF-5/20) 6%, read-out: MIC) | MIC ([13]; Klebsiella pneumoniae (K3, India, V8) MDR, G-block (OligoCF-5/20) 0%, read-out: MIC) | MIC ([13]; Klebsiella pneumoniae (K3, India, V8) MDR, G-block (OligoCF-5/20) 2%, read-out: MIC) | MIC ([13]; Klebsiella pneumoniae (K3, India, V8) MDR, G-block (OligoCF-5/20) 6%, read-out: MIC) | MIC ([13]; Klebsiella pneumoniae (K3, India, V8) MDR, G-block (OligoCF-5/20) 10%, read-out: MIC)
> 512 µg/mL: MIC ([11]; Acinetobacter baumannii, OligoCF-5/20 0G, read-out: MIC)
256^† μg/ml: MIC ([11]; OligoCF-5/20 +10% G)
